{
  "source": "patent US8883856B2",
  "about": "“Compositions and methods for the treatment of inflammatory diseases using topoisomerase inhibitors” (priority 2000, dated 2014)",
  "key": {"[1]": {"test_system": "surgical adhesions", "type": "in vivo", "conditions": "drug-loaded crosslinked HA films (camptothecin 2.5%, doxorubicin 2.5%, beta-lapachone 5%, curcumin 10%), rats", "description": "The rat caecal-sidewall adhesion model was used to test efficacy of crosslinked hyaluroinc acid (HA) polymeric films loaded with one of the following compounds; camptothecin 2.5% loading (w/w to polymer), curcumin 10%, doxorubicin 2.5%, beta-lapachone at 5% or unloaded-no-drug control. Films of 2-2.5 cm^2 were prepared with each drug by the method described in example 10. ETO sterilized, and divided in half at the time of surgical implantation. Sham surgeries omitted the application of HA film as separate controls.\nSprague Dawley rats, 15 male and 15 female, weighing 250-400 g were anaesthetized with Halothane (5%) and maintained, by nose cone, on 1.5-2% Halothane. Surgeries were conducted under sterile conditions. The abdomen was shaved, scrubbed with an antiseptic wash, and opened at the linea alba with a 3 cm incision. A region of the abdominal cavity immediately opposite the large bowel was isolated with bowel clamps, and a #11 scalpel blade was used to score a section of the transversus muscle, describing a rectangle 1×1.5 cm. The muscle was stripped from the peritoneal sidewall with forceps, and minor bleeding was arrested by tamponade. The large bowel was then externalized with sterile swabs, and caecal contents evacuated into the large bowel. Both surfaces of the caecum were stroked, 45 times on each side, with a #10 scalpel blade to produce erythema and punctated bleeding. Each stroke spanned the caecal diameter (approximately 1 cm), and extended along 1.5 cm of the caecal extremity. In only one case did this abrasion procedure cause sustained bleeding requiring ligation. Following 90 blade strokes, the integrity of the tissue was confirmed, and caecum and large bowel were replaced in the pelvis.\nThe film was laid over the rectangular sidewall abrasion (except in the case of sham surgeries), covering the area of damaged tissue. The abraded caecum, relocated in its previous orientation, was than overlaid such that the entire sidewall wound and film were covered by it. Four tacking sutures were placed at the outer extremities of the abraded area of the caecum securing it to the intact peritoneal sidewall immediately outside the rectangular wound area. The abdomen was closed in two layers, and antibiotics administered intramuscularly before the animal regained consciousness.\n. Adhesions over, and adjacent to the caecum were rated according to the following findings: 0: No adhesions connecting caecum to sidewall wound; 1: Filmy or stranded were separable by blunt dissection; 2: Cohesive adhesions attaching the caecum to the sidewall were separable by aggressive blunt dissection; 3: Adhesions inseparable without cutting, or without tearing/damaging caecum. Fractions were assigned where a variety of ratings seemed applicable."}, "[2]": {"test_system": "synoviocytes (HIG.82 rabbit)", "experiment": "MTT proliferation/cytotoxicity assay, synoviocytes", "type": "cell-based", "conditions": "Oryctolagus cuniculus, 48 h, read-out: inhibitory concentration that gave 50% effect on proliferation (IC50), synoviocytes", "description": "(§1) Proliferation was determined using the MTT proliferation/cytotoxicity assay.\n(§2) On day one, 1500-2000 smooth muscle cells (A7r5 rat embryonic thoracic aorta) or synoviocytes (HIG.82 rabbit) were plated per well on a 96-well plate, leaving the first column free of cells (blank). The plate was placed back into the 37° C., CO2 incubator. The following day camptothecin was added at various concentrations. No drugs were added to the first column (blank) and the second column (untreated column) for control. The cells were exposed for 24, 48, and 72 hours. At the end of the exposure period, 50 μl of dimethylthiazol diphenyltetrazolium bromide salt (MTT) dissolved in media was added and allowed to incubate for 4 hours at 37° C. The medium was then aspirated and 200 μl of dimethyl sulfoxide was added. The plate was agitated for 30 minutes and the absorbance read at 562 nm. The optical density measurement was converted to number of cells using a standard plot of optical density with known number of cells and cell viability was expressed as % growth (this value is the % of the control cells)."}, "[3]": {"test_system": "smooth muscle cells (A7r5 rat embryonic thoracic aorta)", "experiment": "MTT proliferation/cytotoxicity assay, smooth muscle cells", "type": "cell-based", "conditions": "A7R5, 48 h, read-out: inhibitory concentration that gave 50% effect on proliferation (IC50), smooth muscle cells", "description": "as §1, §2"}, "[4]": {"test_system": "human neutrophils", "experiment": "Neutrophil chemiluminescence (neutrophil activation)", "type": "cell-based", "conditions": "Homo sapiens, Neutrophil; activation by MSUM crystals; read-out: IC 50, inhibition of neutrophil chemiluminescence", "description": "Freshly prepared human neutrophils were incubated with the compound followed by stimulation of the cells with either plasma opsonized CPPD crystals, the bacterial chemoattractant, fMLP or the phorbol ester, PMA. Stimulation (or activation) of the cells induced superoxide anion generation which could be measured by the emission of light (chemiluminescence). Inhibition of neutrophil function was then determined by inhibition of chemiluminescence. Hanks buffered salt solution (HBSS) pH 7.4 was used throughout the study. All chemicals were purchased from Sigma Chemical Co. (St. Louis, Mo.) unless otherwise stated. All procedures were performed at 37° C. unless otherwise stated. CPPD (triclinic) crystals were prepared and characterized as previously reported (Jackson J K et al., J Rheumatol, 24: 341-348, 1996). The size distribution of the crystals was approximately 33% less than […]. Opsonization of crystals was carried out using 50% heparinized plasma and concentrations of 50 mg of CPPD in 1 mL of 50% plasma. Crystals were incubated with diluted plasma for 30 min at 37° C., centrifuged at 1000×g, then washed in HBSS and recentrifuged. Neutrophils were prepared from freshly collected, human, citrated whole blood. Briefly, 400 mL of blood were mixed with 80 mL of 4% dextran T500 (Pharmacia LKB, Biotechnology AB Uppsala, Sweden) in HBSS and allowed to settle for 1 h. Plasma was collected continuously and 5 mL applied to 5 mL Ficoll Paque (Pharmacia) in 15 mL polypropylene tubes (Corning, N.Y.). Following centrifugation at 500×g for 30 min, the neutrophil pellets were washed free of erythrocytes by 20 s of hypotonic shock. Neutrophils were resuspended in HBSS, kept on ice and used for experiments within 3 h. Neutrophil viability and purity was always greater than 90%.\nA stock solution of drug was diluted in DMSO to give various concentrations of drug. Equal volumes of these solutions were added to neutrophils at 5×10^6 cells per mL under mild vortexing to achieve final concentrations with a final DMSO concentration of 0.25%. This DMSO concentration found to have no effect on control cell responses. Cells were incubated for 15 minutes at 37° C. before addition to crystals, fMLP or PMA.\nChemiluminescence studies were performed at a cell concentration of 5×10^6 cells per mL in HBSS with CPPD (50 mg/mL). In all experiments 0.5 mL of cells were added to 25 mg of CPPD or 1 uM fMLP (and 0.5 uM cytochalasin B) or 0.5 uM PMA in 1.5 ml Eppendorf tubes. To the tubes were added 10 uL of luminol dissolved in 25% DMSO in HBSS to give a final concentration of 1 μM and the samples were mixed to initiate neutrophil activation. Chemiluminescence was monitored using an LKB Luminometer (Model 1250) at 37° C. with shaking immediately prior to measurements to resuspend the crystals. Control tubes contained cells, drug and luminol (crystals absent)."}, "[5]": {"test_system": "caspase 3", "experiment": "Caspase 3 activation in neutrophils (caspACE assay system)", "type": "cell-based, human", "source_text": "(§3) The inflammation associated with many forms of arthritis is thought to arise from the presence of large numbers of immune cells, such as neutrophils, in the synovial joints of humans. The extended inflammation associated with crystal induced arthritis arises from the interaction of neutrophils with crystals in the synovial joint. One reason the extended duration of the inflammation in this disease may be due to the inhibition of neutrophil apoptosis by crystals. This inhibition may result in the neutrophils remaining in the joint for extended periods. Compounds that overcome this crystal induced suppression of neutrophil apoptosis therefore allow the more rapid clearance of these cells from the joint with the appropriate abatement of inflammation. The process of apoptosis involves the endonuclease driven cleavage of DNA into fragments which may be visualized as a ladder of bands in an agarose gel electrophoresis experiment. Other assays that may be used include caspase 3 quantitation or measurements of cytoplasmic DNA concentration. […] Agents that inhibit caspase activation levels or reduce cytoplasmic DNA are pro-survival (potentially inflammatory) and agents that promote are pro-apoptotic and anti-inflammatory. The use of these methods and their role in neutrophil affected inflammation is described in detail in Tudan et al. J Rheumatol. 27 p 2463-72. 2000.\n(§4) Methods: Agarose gel banding/laddering of 180 base pairs: Neutrophils were separated from fresh human blood by standard methods (dextran sedimentation and ficoll paque centrifugation) and suspended in buffer at a concentration of 1×10^6 cells/ml. The cells were then incubated with crystals of calcium pyrophosphate dihydrate (CPPD) for 1 hours at 37° C. The cells were then incubated with or without camptothecin (0.1 uM) for 4 hours at 37° C. Neutrophil aliquots (1×10^6 cells) from different conditions were resuspended in 480 μl of lysis buffer (0.6% SDS, 10 mM Tris, 1 mM EDTA (pH 7.0)) and after vigorous mixing were allowed to sit on ice for 20 min after addition of 120 μl of 5M NaCl. In caspase 3 and DNA fragmentation assays a milder detergent (Triton) was used to lyse only the plasma membrane of the cells so that cytoplasmic contents (caspase 3 or DNA fragments) could be assayed. Samples were sedimented at 14,000 rpm at 4° C. for 20 min. The pellet was dried and resuspended in phenol:chloroform. Four hundred fifty μl of the upper phase was added to a new tube, which was then charged with 950 μl of […] and held at −20° C. for 10 min. The DNA was sedimented at 14,000 rpm (4° C.) and carefully washed in 75% ethanol without disturbing the pellet. The DNA was dried at 37° C. and then resuspended in 20 μl sample buffer (50% TBE with 1 μl of 1 ng/ml RNase A (Pharmacia)). The samples were vortexed and allowed to stand at 37° C. for 10 min. Five μl of loading dye (20% Ficoll Paque (Pharmacia), 0.1% bromophenol blue, 0.1% xylene cyanole) was added. Electrophoresis was carried out in 2% agarose at 80 mA, and the gel was then stained with ethidium bromide (Pharmacia) and photographed under U.V. illumination.\nCaspase 3 activation was assayed using a commercial kit for this enzyme (caspACE assay system, Promega Scientific) and cyotplasmic DNA was assayed using a commercial kit (Cell death detection ELISA-Boehringer—Mannheim)."}, "[6]": {"test_system": "neutrophils", "experiment": "Cytoplasmic DNA fragmentation in neutrophils (Cell death detection ELISA)", "type": "cell-based, human", "source_text": "as §3\nas §4, with “The samples were vortexed and allowed to stand at 37° C. for 10 min. Five μl of loading dye (20% Ficoll Paque (Pharmacia), 0.1% bromophenol blue, 0.1% xylene cyanole) was added. Electrophoresis was carried out in 2% agarose at 80 mA, and the gel was then stained with ethidium bromide (Pharmacia) and photographed under U.V. illumination.” left out"}},
  "note": "Read-outs that look alike come from different tables or passages of the source.",
  "data": [
    {"compound": "COc1cc(/C=C/C(=O)CC(=O)/C=C/c2ccc(O)c(OC)c2)ccc1O", "note": "[curcumin]", "values": [
      {"measurement": "surgical adhesion formation, in words", "setting": "[1]", "result": "no inhibition of adhesion formation"},
      {"measurement": "surgical adhesion formation, in words", "setting": "[1]; listed as circumin", "result": "no inhibitory effect on surgical adhesion formation in rats"}
    ]},
    {"compound": "O=C1C=CC(=O)c2c(O)cccc21", "note": "[juglone]", "values": [
      {"measurement": "IC50", "setting": "[2]", "result": 4.3, "unit": "µM"},
      {"measurement": "IC50", "setting": "[3]", "result": 2, "unit": "µM"},
      {"measurement": "IC50", "setting": "[4]", "result": "0.5 to 1", "unit": "µg/mL"}
    ]},
    {"compound": "O=C1c2c(O)ccc(O)c2C(=O)c2c(NCCNCCO)ccc(NCCNCCO)c21", "note": "[mitoxantrone]", "values": [
      {"measurement": "caspase 3 activation in neutrophils", "setting": "[5]", "result": "induced an increase in the activation of caspase 3 levels"},
      {"measurement": "cytoplasmic DNA fragments in neutrophils", "setting": "[6]", "result": "significant increase in cytoplasmic DNA"}
    ]},
    {"compound": "COC(=O)[C@@H]1c2cc3c(c(O)c2[C@@H](O[C@@H]2O[C@@H](C)[C@H](OC)[C@@](C)(OC)[C@H]2OC)C[C@]1(C)O)C(=O)c1c(O)cc2c(c1C3=O)O[C@@H]1O[C@@]2(C)[C@H](O)[C@@H](N(C)C)[C@@H]1O", "note": "[nogalamycin]", "values": [
      {"measurement": "caspase 3 activation in neutrophils", "setting": "[5]", "result": "induced an increase in the activation of caspase 3 levels"}
    ]}
  ]
}
